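48-hour exposure; five concentrations; linearly interpolated endpoints. At the GI50, growth is halved. TGI: concentration producing complete growth inhibition.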
Columns and labels:
Assay in all cases: NCI tumour cell line growth inhibition, 48 h
[1] = test system: 786-0 renal
[2] = test system: A498 renal
[3] = test system: A549 NSCLC
[4] = test system: ACHN renal
[5] = test system: BT-549 breast
[6] = test system: CAKI-1 renal
[7] = test system: CCRF-CEM leukemia
[8] = test system: COLO 205 colon
[9] = test system: DU-145 prostate
[10] = test system: EKVX NSCLC
[11] = test system: HCC-2998 colon
[12] = test system: HCT-116 colon
[13] = test system: HCT-15 colon
[14] = test system: HL-60(TB) leukemia
[15] = test system: HOP-62 NSCLC
[16] = test system: HOP-92 NSCLC
[17] = test system: HS 578T breast
[18] = test system: HT29 colon
[19] = test system: IGROV1 ovarian
[20] = test system: K-562 leukemia
[21] = test system: KM12 colon
[22] = test system: LOX IMVI melanoma
[23] = test system: M14 melanoma
[24] = test system: MALME-3M melanoma
[25] = test system: MDA-MB-231 breast
[26] = test system: MDA-MB-435
[27] = test system: MOLT-4 leukemia
[28] = test system: NCI-H226 lung
[29] = test system: NCI-H23 lung
[30] = test system: NCI-H460 lung
[31] = test system: NCI-H522 lung
[32] = test system: NCI/ADR-RES ovarian
[33] = test system: OVCAR-3 ovarian
[34] = test system: OVCAR-4 ovarian
[35] = test system: OVCAR-5 ovarian
[36] = test system: OVCAR-8 ovarian
[37] = test system: PC-3 prostate
[38] = test system: RPMI-8226 leukemia
[39] = test system: RXF 393 renal
[40] = test system: SF-268 CNS
[41] = test system: SF-295 CNS
[42] = test system: SF-539 CNS
[43] = test system: SK-MEL-2 melanoma
[44] = test system: SK-MEL-5 melanoma
[45] = test system: SK-OV-3 ovarian
[46] = test system: SN12C renal
[47] = test system: SNB-19 CNS
[48] = test system: SNB-75 CNS
[49] = test system: SR leukemia
[50] = test system: SW-620 colon
[51] = test system: T-47D breast
[52] = test system: TK-10 renal
[53] = test system: U251 CNS
[54] = test system: UO-31 renal
[55] = test system: MCF7 breast
[56] = test system: SK-MEL-28 melanoma
[57] = test system: UACC-257 melanoma
[58] = test system: UACC-62 melanoma

Compound: C=C1C(=O)O[C@H]2[C@H]1CC/C(CNC(=O)c1cc3ccccc3[nH]1)=C\CC[C@@]1(C)O[C@@H]21
- GI50 [1]: 1690 nM
- TGI [1]: 3.43 µM
- GI50 [2]: 3.15 µM
- TGI [2]: 6.69 µM
- GI50 [3]: 4.39 µM
- TGI [3]: 15.7 µM
- GI50 [4]: 1260 nM
- TGI [4]: 3.07 µM
- GI50 [5]: 1690 nM
- TGI [5]: 3.34 µM
- GI50 [6]: 1270 nM
- TGI [6]: 4.26 µM
- GI50 [7]: 375 nM
- TGI [7]: 1.76 µM
- GI50 [8]: 1160 nM
- TGI [8]: 2.6 µM
- GI50 [9]: 575 nM
- TGI [9]: 1.87 µM
- GI50 [10]: 2110 nM
- TGI [10]: 8.04 µM
- GI50 [11]: 1850 nM
- TGI [11]: 3.38 µM
- GI50 [12]: 1000 nM
- TGI [12]: 2.21 µM
- GI50 [13]: 439 nM
- TGI [13]: 1.72 µM
- GI50 [14]: 2010 nM
- TGI [14]: 5.8 µM
- GI50 [15]: 1860 nM
- TGI [15]: 4.37 µM
- GI50 [16]: 1570 nM
- TGI [16]: 3.46 µM
- GI50 [17]: 6.62 µM
- TGI [17]: 38.7 µM
- GI50 [18]: 1110 nM
- TGI [18]: 3.09 µM
- GI50 [19]: 1320 nM
- TGI [19]: 5.4 µM
- GI50 [20]: 642 nM
- TGI [20]: 4.92 µM
- GI50 [21]: 2080 nM
- TGI [21]: 5 µM
- GI50 [22]: 580 nM
- TGI [22]: 1.99 µM
- GI50 [23]: 1120 nM
- TGI [23]: 2.81 µM
- GI50 [24]: 1780 nM
- TGI [24]: 3.6 µM
- GI50 [25]: 1380 nM
- TGI [25]: 3.34 µM
- GI50 [26]: 1580 nM
- TGI [26]: 4.63 µM
- GI50 [27]: 1600 nM
- TGI [27]: 4.55 µM
- GI50 [28]: 2580 nM
- TGI [28]: 10.7 µM
- GI50 [29]: 1680 nM
- TGI [29]: 4.26 µM
- GI50 [30]: 4.09 µM
- TGI [30]: 17.3 µM
- GI50 [31]: 1570 nM
- TGI [31]: 3.31 µM
- GI50 [32]: 3.08 µM
- TGI [32]: 12.3 µM
- GI50 [33]: 504 nM
- TGI [33]: 1690 nM
- GI50 [34]: 1730 nM
- TGI [34]: 5.53 µM
- GI50 [35]: 2370 nM
- TGI [35]: 6.26 µM
- GI50 [36]: 2080 nM
- TGI [36]: 5.87 µM
- GI50 [37]: 2030 nM
- TGI [37]: 4.78 µM
- GI50 [38]: 1020 nM
- TGI [38]: 3.88 µM
- GI50 [39]: 1010 nM
- TGI [39]: 2.52 µM
- GI50 [40]: 1600 nM
- TGI [40]: 3.67 µM
- GI50 [41]: 6.45 µM
- TGI [41]: 19.5 µM
- GI50 [42]: 1610 nM
- TGI [42]: 3.16 µM
- GI50 [43]: 1880 nM
- TGI [43]: 4.29 µM
- GI50 [44]: 1720 nM
- TGI [44]: 3.65 µM
- GI50 [45]: 11.6 µM
- TGI [45]: 23.8 µM
- GI50 [46]: 1790 nM
- TGI [46]: 4.85 µM
- GI50 [47]: 7.73 µM
- TGI [47]: 23 µM
- GI50 [48]: 6.98 µM
- TGI [48]: 21 µM
- GI50 [49]: 319 nM
- TGI [49]: 3.4 µM
- GI50 [50]: 523 nM
- TGI [50]: 2.01 µM
- GI50 [51]: 1650 nM
- TGI [51]: 4.8 µM
- GI50 [52]: 1480 nM
- TGI [52]: 3.23 µM
- GI50 [53]: 1680 nM
- TGI [53]: 3.26 µM
- GI50 [54]: 1290 nM
- TGI [54]: 2.9 µM

Compound: CC1=NN(c2nc(N)nc(COc3ccc(N)cc3)n2)C(C)(C)C1
- TGI [1]: > 100 µM
- TGI [2]: > 100 µM
- TGI [4]: > 100 µM
- TGI [5]: > 100 µM
- TGI [6]: > 100 µM
- TGI [7]: > 100 µM
- TGI [8]: > 100 µM
- TGI [9]: > 100 µM
- TGI [10]: > 100 µM
- TGI [11]: > 100 µM
- TGI [12]: > 100 µM
- TGI [13]: > 100 µM
- TGI [14]: > 100 µM
- TGI [15]: > 100 µM
- TGI [16]: > 100 µM
- TGI [17]: > 100 µM
- TGI [18]: > 100 µM
- TGI [19]: > 100 µM
- TGI [20]: > 100 µM
- TGI [21]: > 100 µM
- TGI [22]: > 100 µM
- TGI [23]: > 100 µM
- TGI [55]: > 100 µM
- TGI [25]: > 100 µM
- TGI [26]: > 100 µM
- TGI [27]: > 100 µM
- TGI [28]: > 100 µM
- TGI [29]: > 100 µM
- TGI [30]: > 100 µM
- TGI [32]: > 100 µM
- TGI [34]: > 100 µM
- TGI [36]: > 100 µM
- TGI [37]: > 100 µM
- TGI [38]: > 100 µM
- TGI [39]: > 100 µM
- TGI [40]: > 100 µM
- TGI [41]: > 100 µM
- TGI [42]: > 100 µM
- TGI [43]: > 100 µM
- TGI [56]: > 100 µM
- TGI [44]: > 100 µM
- TGI [45]: > 100 µM
- TGI [47]: > 100 µM
- TGI [48]: > 100 µM
- TGI [49]: > 100 µM
- TGI [50]: > 100 µM
- TGI [51]: > 100 µM
- TGI [52]: > 100 µM
- TGI [53]: > 100 µM
- TGI [57]: > 100 µM
- TGI [58]: > 100 µM
- TGI [54]: > 100 µM

Compound: Oc1ccc(NCn2c(=S)sc3ccccc32)cc1
- TGI [2]: > 100 µM
- TGI [3]: > 100 µM
- TGI [4]: > 100 µM
- TGI [5]: > 100 µM
- TGI [6]: > 100 µM
- TGI [7]: 92 µM
- TGI [8]: > 100 µM
- TGI [9]: > 100 µM
- TGI [10]: > 100 µM
- TGI [11]: > 100 µM
- TGI [12]: > 100 µM
- TGI [13]: > 100 µM
- TGI [14]: > 100 µM
- TGI [15]: > 100 µM
- TGI [16]: > 100 µM
- TGI [17]: > 100 µM
- TGI [18]: > 100 µM
- TGI [19]: > 100 µM
- TGI [20]: > 100 µM
- TGI [21]: > 100 µM
- TGI [22]: > 100 µM
- TGI [23]: > 100 µM
- TGI [24]: > 100 µM
- TGI [55]: > 100 µM
- TGI [25]: > 100 µM
- TGI [26]: > 100 µM
- TGI [27]: > 100 µM
- TGI [29]: > 100 µM
- TGI [30]: > 100 µM
- TGI [31]: 40.5 µM
- TGI [32]: > 100 µM
- TGI [33]: > 100000 nM
- TGI [34]: > 100 µM
- TGI [35]: > 100 µM
- TGI [36]: > 100 µM
- TGI [37]: > 100 µM
- TGI [38]: > 100 µM
- TGI [39]: > 100 µM
- TGI [40]: > 100 µM
- TGI [41]: > 100 µM
- TGI [42]: > 100 µM
- TGI [43]: > 100 µM
- TGI [56]: > 100 µM
- TGI [44]: > 100 µM
- TGI [45]: > 100 µM
- TGI [46]: > 100 µM
- TGI [47]: > 100 µM
- TGI [48]: > 100 µM
- TGI [50]: > 100 µM
- TGI [51]: > 100 µM
- TGI [52]: > 100 µM
- TGI [53]: > 100 µM
- TGI [57]: > 100 µM
- TGI [58]: > 100 µM
- TGI [54]: > 100 µM
